# Assay results: EPA's ToxRefDB 2
# Tests used:
# [1] = test system: mouse; conditions: Carcinogenicity, cd1, Oral, Feed, dose end: 82 week, group: systemic
# [2] = test system: rat; conditions: Combined chronic toxicity/carcinogenicity, fischer, Oral, Feed, dose end: 24 month, group: systemic
# [3] = test system: dog; conditions: Subchronic oral toxicity in nonrodent, beagle, Capsule, dose end: 90 day, group: systemic, systemic / clinical chemistry / albumin-globulin ratio / albumin-globulin ratio + systemic / clinical chemistry / cholesterol / cholesterol…
# [4] = test system: mouse; conditions: Subchronic oral toxicity in rodents, cd1, Feed, dose end: 13 week, group: systemic
# [5] = test system: rat; conditions: Subchronic oral toxicity in rodents, sprague dawley, Feed, dose end: 90 day, group: systemic
# [6] = test system: rat; conditions: Multigenerational reproductive toxicity study, other, Oral, Feed, dose end: 2 generation
# [7] = test system: dog; conditions: Chronic toxicity; beagle; Oral; Capsule; dose end: 52 week; group: systemic; systemic / in life observation / clinical signs / abnormal movements + systemic / in life observation / clinical signs / altered breathing …
# [8] = test system: rat; conditions: Subchronic oral toxicity in rodents, sprague dawley, Feed, dose end: 13 week, group: systemic
# [9] = test system: rat; conditions: Sub-acute repeat dose toxicity; wistar; Oral; Feed; dose end: 21 day; group: systemic; systemic / clinical chemistry / [other] / [other] + systemic / clinical chemistry / 5' nucleotidase / 5' nucleotidase + systemic / organ …
# [10] = test system: rat; conditions: Prenatal developmental toxicity study, sprague dawley, Oral, Gavage/Intubation, dose end: 20 GD
# [11] = test system: rat; conditions: Combined chronic toxicity/carcinogenicity; fischer; Oral; Feed; dose end: 2 year; group: systemic; systemic / in life observation / body weight / body weight
# [12] = test system: mouse; conditions: Subchronic oral toxicity in rodents, b6c3f1, Feed, dose end: 12 week, group: systemic
# [13] = test system: rat; conditions: Subchronic oral toxicity in rodents, fischer, Feed, dose end: 12 week, group: systemic
# [14] = test system: mouse; conditions: Combined chronic toxicity/carcinogenicity, b6c3f1, Oral, Feed, dose end: 2 year, group: systemic
# [15] = systemic / in life observation / body weight / body weight gain
# [16] = systemic / organ weight / thyroid gland / absolute + systemic / organ weight / thyroid gland / relative to body weight
# [17] = systemic / clinical chemistry / creatinine / creatinine
# [18] = systemic / clinical chemistry / albumin / albumin + systemic / clinical chemistry / cholesterol / cholesterol + systemic / clinical …
# [19] = group: offspring, systemic / in life observation / body weight / offspring (pup) weight
# [20] = group: parental, systemic / in life observation / body weight / body weight + systemic / in life observation / body weight / body weight gain + systemic / …
# [21] = systemic / in life observation / body weight / body weight gain + systemic / in life observation / food consumption / food efficiency + …
# [22] = group: developmental, developmental / developmental malformation / bone / delayed ossification + developmental / developmental malformation / bone / supernumerary…
# [23] = group: maternal, reproductive / reproductive performance / postimplantation loss / postimplantation loss + reproductive / reproductive performance / …
# [24] = group: maternal, systemic / clinical chemistry / [other] / [other] + systemic / organ weight / liver / absolute + systemic / organ weight / liver / relative …
# [25] = systemic / in life observation / body weight / body weight gain + systemic / pathology microscopic / bone marrow / hyperplasia + systemic / …
# [26] = systemic / in life observation / body weight / body weight + systemic / pathology microscopic / liver / carcinoma
# [27] = systemic / pathology microscopic / liver / carcinoma
smiles,measurement,setting,value
C#CCC1=C(C)C(OC(=O)C2C(C=C(C)C)C2(C)C)CC1=O (centres undefined) [Prallethrin],LOAEL,[1]; [15],347 mg/kg/day
same,NOAEL,[1]; systemic / in life observation / body weight / body weight gain + systemic / organ weight / liver / nos,68 mg/kg/day
same,LEL,[1]; systemic / in life observation / clinical signs / fur (altered appearance),68 mg/kg/day
same,NEL,[1]; systemic / in life observation / clinical signs / fur (altered appearance) + systemic / organ weight / kidney / nos + systemic / organ …,13 mg/kg/day
same,LOAEL,[2]; [15],83.5 mg/kg/day
same,NOAEL,[2]; systemic / in life observation / body weight / body weight gain + systemic / clinical chemistry / cholesterol / cholesterol + systemic / …,16.3 mg/kg/day
same,LEL,[2]; [16],4 mg/kg/day
same,NEL,[2]; [16],< 4 mg/kg/day
same,LEL,[3],10 mg/kg/day
same,LOAEL,[3],10 mg/kg/day
same,NEL,[3],3 mg/kg/day
same,NOAEL,[3],3 mg/kg/day
same,LEL,[4]; [17],39 mg/kg/day
same,NEL,[4]; [17],< 39 mg/kg/day
same,LOAEL,[4]; systemic / in life observation / body weight / body weight + systemic / in life observation / body weight / body weight gain,1840 mg/kg/day
same,NOAEL,[4]; systemic / in life observation / body weight / body weight + systemic / in life observation / body weight / body weight gain + systemic / …,808 mg/kg/day
same,LOAEL,[5]; [18],230 mg/kg/day
same,NEL,[5]; [18],24 mg/kg/day
same,NOAEL,[5]; [18],79.1 mg/kg/day
same,LEL,[5]; systemic / clinical chemistry / protein / protein + systemic / organ weight / kidney / absolute + systemic / hematology / eosinophils / …,79.1 mg/kg/day
same,LEL,[6]; [19],156 mg/kg/day
same,LOAEL,[6]; [19],156 mg/kg/day
same,NEL,[6]; [19],31 mg/kg/day
same,NOAEL,[6]; [19],31 mg/kg/day
same,LOAEL,[6]; [20],156 mg/kg/day
same,NEL,[6]; [20],6 mg/kg/day
same,NOAEL,[6]; [20],31 mg/kg/day
same,LEL,"[6]; group: parental, systemic / in life observation / body weight / body weight gain",31 mg/kg/day
same,LEL,[7],5 mg/kg/day
same,LOAEL,[7],5 mg/kg/day
same,NEL,[7],2.5 mg/kg/day
same,NOAEL,[7],2.5 mg/kg/day
"Cn1sc2c(c1=O)CCC2 [2-Methyl-5,6-dihydro-2H-cyclopenta[d][1,2]thiazol-3(4H)-one]",LOAEL,[8]; systemic / in life observation / body weight / body weight gain + systemic / in life observation / food consumption / food efficiency,23.2 mg/kg/day
same,LEL,[8]; [21],23.2 mg/kg/day
same,NEL,[8]; [21],4.6 mg/kg/day
same,NOAEL,[8]; [21],4.6 mg/kg/day
CCCCCCOC(=O)c1ccccc1C(=O)OCCCCCC [Dihexyl phthalate],LEL,[9],1000 mg/kg/day
same,LOAEL,[9],> 1000 mg/kg/day
same,NEL,[9],< 1000 mg/kg/day
same,NOAEL,[9],≥ 1000 mg/kg/day
same,LEL,[10]; [22],250 mg/kg/day
same,LOAEL,[10]; [22],250 mg/kg/day
same,NEL,[10]; [22],< 250 mg/kg/day
same,NOAEL,[10]; [22],< 250 mg/kg/day
same,LOAEL,[10]; [23],> 750 mg/kg/day
same,NOAEL,[10]; [23],≥ 750 mg/kg/day
same,LEL,[10]; [24],250 mg/kg/day
same,NEL,[10]; [24],< 250 mg/kg/day
O=S(=O)([O-])c1ccc(N=Nc2c(O)ccc3cc(S(=O)(=O)[O-])ccc23)cc1.[Na+].[Na+] [FD&C Yellow 6],LEL,[11],1250 mg/kg/day
same,LOAEL,[11],> 1250 mg/kg/day
same,NEL,[11],625 mg/kg/day
same,NOAEL,[11],≥ 1250 mg/kg/day
same,LEL,[12]; [15],900 mg/kg/day
same,LOAEL,[12]; [15],15000 mg/kg/day
same,NEL,[12]; [15],< 900 mg/kg/day
same,NOAEL,[12]; systemic / in life observation / body weight / body weight gain + systemic / in life observation / body weight / body weight,7500 mg/kg/day
same,LEL,[13]; [15],625 mg/kg/day
same,LOAEL,[13]; [15],2500 mg/kg/day
same,NEL,[13]; [25],300 mg/kg/day
same,NOAEL,[13]; [25],1250 mg/kg/day
same,LOAEL,[14]; [26],> 3750 mg/kg/day
same,NOAEL,[14]; [26],≥ 3750 mg/kg/day
same,LEL,[14]; [27],1880 mg/kg/day
same,NEL,[14]; [27],< 1880 mg/kg/day
